Source: patent US20100298141A1, “SUBSTITUTED PYRIDINE N-OXIDE HERBICIDES” (E. I. DU PONT DE NEMOURS AND COMPANY, priority 2007, published 2010)

Key:
blackgrass = assay: Test C pre-/postemergence test; assay type: in vivo, Alopecurus myosuroides; settings: for Plant response rating, Blackgrass: 31 g ai/ha, scale 0 to 100 (0 no effect, 100 complete control)
Summary of the method: (§1)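 Compounds in a non-phytotoxic solvent with surfactant applied preemergence to seeded pots and, at the same time, postemergence to plants 2–18 cm tall (1- to 4-leaf stage). Paddy tests: pots flooded to 3 cm, compound applied into the water, depth held throughout.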

common ragweed = assay: Test C pre-/postemergence test; assay type: in vivo, Ambrosia elation
Summary of the method: as §1

velvetleaf [1] = assay: Test C pre-/postemergence test; assay type: in vivo, Abutilon theophrasti; settings: for Plant response rating, Velvetleaf: 31 g ai/ha, scale 0 to 100 (0 no effect, 100 complete control)
Summary of the method: as §1

crabgrass = assay: Test A pre-/postemergence greenhouse test; assay type: in vivo, Digitaria sanguinalis; settings: for Plant response rating, Crabgrass, Large: 0 to 100 scale where 0 is no effect and 100 is complete control; for Crabgrass, Large plant response rating: 0 to 100 scale
Summary of the method: (§2)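 Greenhouse herbicide screen, pre- and postemergence in parallel. Soil: loam plus sand. Formulation: non-phytotoxic solvent mix with surfactant. Postemergence stage: one to two leaves, 2–10 cm height. Evaluation: visual injury, compared with untreated controls, about 10 days after treatment.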

downy brome = assay: Test C pre-/postemergence test; assay type: in vivo, Bromus tectorum; settings: for Plant response rating, Bromegrass, Downy: 31 g ai/ha, scale 0 to 100 (0 no effect, 100 complete control)
Summary of the method: as §1

velvetleaf [2] = assay: Test A pre-/postemergence greenhouse test; assay type: in vivo, Abutilon theophrasti; settings: for Plant response rating, Velvetleaf: 0 to 100 scale where 0 is no effect and 100 is complete control; for Velvetleaf plant response rating: 0 to 100 scale
Summary of the method: as §2

barnyardgrass [3] = assay: Test A pre-/postemergence greenhouse test; assay type: in vivo, Echinochloa crus-galli; settings: for Plant response rating, Barnyardgrass: 0 to 100 scale where 0 is no effect and 100 is complete control; for Barnyardgrass plant response rating: 0 to 100 scale
Summary of the method: as §2

lambsquarters = assay: Test C pre-/postemergence test; assay type: in vivo, Chenopodium album; settings: for Plant response rating, Lambsquarters: 31 g ai/ha, scale 0 to 100 (0 no effect, 100 complete control)
Summary of the method: as §1

giant foxtail = assay: Test A pre-/postemergence greenhouse test; assay type: in vivo, Setaria faberi; settings: for Plant response rating, Foxtail, Giant: 0 to 100 scale where 0 is no effect and 100 is complete control; for Foxtail, Giant plant response rating: 0 to 100 scale
Summary of the method: as §2

barnyardgrass [4] = assay: Test C flooded paddy test; assay type: in vivo, Echinochloa crus-galli; settings: Flood
Summary of the method: (§3)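 Test compounds are applied straight into paddy water held 3 cm above the soil surface, with that flood maintained for the whole test. After 13 to 15 days in the greenhouse, each species is scored visually relative to controls.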

soybean = assay: Test C pre-/postemergence test; assay type: in vivo, Glycine max; settings: for Plant response rating, Soybean: 31 g ai/ha, scale 0 to 100 (0 no effect, 100 complete control)
Summary of the method: as §1

catchweed bedstraw = assay: Test C pre-/postemergence test; assay type: in vivo, Galium aparine
Summary of the method: as §1

woolly cupgrass = assay: Test C pre-/postemergence test; assay type: in vivo, Eriochloa villosa; settings: for Plant response rating, Cupgrass, Woolly: 31 g ai/ha, scale 0 to 100 (0 no effect, 100 complete control)
Summary of the method: as §1

green foxtail = assay: Test C pre-/postemergence test; assay type: in vivo, Setaria viridis; settings: for Plant response rating, Foxtail, Green: 31 g ai/ha, scale 0 to 100 (0 no effect, 100 complete control)
Summary of the method: as §1

duck salad = assay: Test C flooded paddy test; assay type: in vivo, Heteranthera limosa; settings: Flood
Summary of the method: as §3

Surinam grass = assay: Test C pre-/postemergence test; assay type: in vivo, Brachiaria decumbens; settings: for Plant response rating, Surinam Grass: 31 g ai/ha, scale 0 to 100 (0 no effect, 100 complete control)
Summary of the method: as §1

pigweed = assay: Test C pre-/postemergence test; assay type: in vivo, Amaranthus retroflexus; settings: for Plant response rating, Pigweed: 31 g ai/ha, scale 0 to 100 (0 no effect, 100 complete control)
Summary of the method: as §1

[5] = 62 g ai/ha, Preemergence, scale 0 to 100
[6] = 125 g ai/ha, preemergence, scale 0 (no effect) to 100 (complete control)
[7] = preemergence, 250 g ai/ha, scale 0 (no effect) to 100 (complete control)
[8] = Postemergence, 500 g ai/ha, 0 is no effect, 100 is complete control
[9] = Preemergence, 125 g ai/ha, 0 no effect, 100 complete control
[10] = Preemergence, 500 g ai/ha, 0 no effect, 100 complete control
[11] = 62 g ai/ha, scale 0 to 100 (0 no effect, 100 complete control)
[12] = 250 g ai/ha, scale 0 to 100, 0 no effect, 100 complete control, 13 to 15 days

CC(Oc1c(C[S+]([O-])c2ccc(Cl)c[n+]2[O-])c(C(F)(F)F)nn1C)C(F)(F)F (stereo not drawn) [Compound 87]
Blackgrass plant response rating (blackgrass; [5]): 100 | Blackgrass plant response rating (blackgrass; [6]): 100 | Plant response rating, Blackgrass (blackgrass; Preemergence): 100 | Blackgrass plant response rating (blackgrass; [7]): 100 | Ragweed plant response rating (common ragweed; [6]): 70 | Ragweed plant response rating (common ragweed; [7]): 80 | Velvetleaf plant response rating (velvetleaf [1]; [5]): 5 | Velvetleaf plant response rating (velvetleaf [1]; [6]): 70 | Plant response rating, Velvetleaf (velvetleaf [1]; Preemergence): 0 | Velvetleaf plant response rating (velvetleaf [1]; [7]): 95 | Plant response rating, Crabgrass, Large (crabgrass; Postemergence, 125 g ai/ha): 80 | Crabgrass, Large plant response rating (crabgrass; [8]): 90 | Crabgrass, Large plant response rating (crabgrass; [9]): 90 | Plant response rating, Crabgrass, Large (crabgrass; Preemergence, 500 g ai/ha): 100 | Plant response rating, Bromegrass, Downy (downy brome; Preemergence): 80 | Bromegrass, Downy plant response rating (downy brome; [7]): 100 | Plant response rating, Velvetleaf (velvetleaf [2]; Postemergence, 125 g ai/ha): 70 | Velvetleaf plant response rating (velvetleaf [2]; [8]): 80 | Velvetleaf plant response rating (velvetleaf [2]; [9]): 80 | Velvetleaf plant response rating (velvetleaf [2]; [10]): 100 | Plant response rating, Barnyardgrass (barnyardgrass [3]; Postemergence, 125 g ai/ha): 80 | Barnyardgrass plant response rating (barnyardgrass [3]; [8]): 90 | Barnyardgrass plant response rating (barnyardgrass [3]; [9]): 90 | Plant response rating, Barnyardgrass (barnyardgrass [3]; Preemergence, 500 g ai/ha): 100 | Lambsquarters plant response rating (lambsquarters; [5]): 85 | Lambsquarters plant response rating (lambsquarters; [6]): 100 | Plant response rating, Lambsquarters (lambsquarters; Preemergence): 60 | Lambsquarters plant response rating (lambsquarters; [7]): 100 | Plant response rating, Foxtail, Giant (giant foxtail; Postemergence, 125 g ai/ha): 90 | Foxtail, Giant plant response rating (giant foxtail; [8]): 90 | Foxtail, Giant plant response rating (giant foxtail; [9]): 90 | Plant response rating, Foxtail, Giant (giant foxtail; Preemergence, 500 g ai/ha): 100 | Plant response rating, Barnyardgrass (barnyardgrass [4]; [11]): 30 | Plant response rating, Barnyardgrass (barnyardgrass [4]; [12]): 90 | Soybean plant response rating (soybean; [5]): 65 | Soybean plant response rating (soybean; [6]): 80 | Plant response rating, Soybean (soybean; Preemergence): 65 | Soybean plant response rating (soybean; [7]): 80 | Galium plant response rating (catchweed bedstraw; [5]): 80 | Galium plant response rating (catchweed bedstraw; [6]): 100 | Plant response rating, Galium (catchweed bedstraw; Preemergence, 31 g ai/ha, scale 0 to 100 (0 no effect, 100 complete control)): 70 | Galium plant response rating (catchweed bedstraw; [7]): 100 | Cupgrass, Woolly plant response rating (woolly cupgrass; [5]): 90 | Cupgrass, Woolly plant response rating (woolly cupgrass; [6]): 98 | Plant response rating, Cupgrass, Woolly (woolly cupgrass; Preemergence): 80 | Cupgrass, Woolly plant response rating (woolly cupgrass; [7]): 100 | Foxtail, Green plant response rating (green foxtail; [5]): 100 | Foxtail, Green plant response rating (green foxtail; [6]): 100 | Plant response rating, Foxtail, Green (green foxtail; Preemergence): 95 | Foxtail, Green plant response rating (green foxtail; [7]): 100 | Plant response rating, Ducksalad (duck salad; [11]): 50 | Plant response rating, Ducksalad (duck salad; [12]): 100 | Surinam Grass plant response rating (Surinam grass; [5]): 95 | Surinam Grass plant response rating (Surinam grass; [6]): 95 | Plant response rating, Surinam Grass (Surinam grass; Preemergence): 80 | Surinam Grass plant response rating (Surinam grass; [7]): 98 | Pigweed plant response rating (pigweed; [5]): 75 | Pigweed plant response rating (pigweed; [6]): 95 | Plant response rating, Pigweed (pigweed; Preemergence): 10 | Pigweed plant response rating (pigweed; [7]): 100

Cn1nc(C(F)(F)C(F)(F)F)c(C[S+]([O-])c2ccc(Cl)c[n+]2[O-])c1OCC(F)(F)F (stereo not drawn) [Compound 92]
Blackgrass plant response rating (blackgrass; [5]): 100 | Blackgrass plant response rating (blackgrass; [6]): 100 | Plant response rating, Blackgrass (blackgrass; Preemergence): 85 | Blackgrass plant response rating (blackgrass; [7]): 100 | Ragweed plant response rating (common ragweed; [5]): 85 | Ragweed plant response rating (common ragweed; [6]): 100 | Ragweed plant response rating (common ragweed; [7]): 100 | Velvetleaf plant response rating (velvetleaf [1]; [5]): 50 | Velvetleaf plant response rating (velvetleaf [1]; [6]): 100 | Plant response rating, Velvetleaf (velvetleaf [1]; Preemergence): 50 | Velvetleaf plant response rating (velvetleaf [1]; [7]): 100 | Plant response rating, Crabgrass, Large (crabgrass; Postemergence, 125 g ai/ha): 70 | Crabgrass, Large plant response rating (crabgrass; [8]): 90 | Crabgrass, Large plant response rating (crabgrass; [9]): 80 | Plant response rating, Crabgrass, Large (crabgrass; Preemergence, 500 g ai/ha): 90 | Bromegrass, Downy plant response rating (downy brome; [5]): 70 | Bromegrass, Downy plant response rating (downy brome; [6]): 85 | Plant response rating, Bromegrass, Downy (downy brome; Preemergence): 50 | Bromegrass, Downy plant response rating (downy brome; [7]): 100 | Plant response rating, Velvetleaf (velvetleaf [2]; Postemergence, 125 g ai/ha): 50 | Velvetleaf plant response rating (velvetleaf [2]; [8]): 90 | Velvetleaf plant response rating (velvetleaf [2]; [9]): 30 | Velvetleaf plant response rating (velvetleaf [2]; [10]): 100 | Plant response rating, Barnyardgrass (barnyardgrass [3]; Postemergence, 125 g ai/ha): 70 | Barnyardgrass plant response rating (barnyardgrass [3]; [8]): 90 | Barnyardgrass plant response rating (barnyardgrass [3]; [9]): 60 | Plant response rating, Barnyardgrass (barnyardgrass [3]; Preemergence, 500 g ai/ha): 90 | Lambsquarters plant response rating (lambsquarters; [5]): 100 | Lambsquarters plant response rating (lambsquarters; [6]): 100 | Plant response rating, Lambsquarters (lambsquarters; Preemergence): 100 | Lambsquarters plant response rating (lambsquarters; [7]): 100 | Plant response rating, Foxtail, Giant (giant foxtail; Postemergence, 125 g ai/ha): 80 | Foxtail, Giant plant response rating (giant foxtail; [8]): 90 | Foxtail, Giant plant response rating (giant foxtail; [9]): 90 | Plant response rating, Foxtail, Giant (giant foxtail; Preemergence, 500 g ai/ha): 100 | Plant response rating, Barnyardgrass (barnyardgrass [4]; [11]): 0 | Plant response rating, Barnyardgrass (barnyardgrass [4]; [12]): 75 | Plant response rating, Soybean (soybean; Preemergence): 0 | Soybean plant response rating (soybean; [7]): 80 | Galium plant response rating (catchweed bedstraw; [5]): 80 | Galium plant response rating (catchweed bedstraw; [6]): 95 | Galium plant response rating (catchweed bedstraw; [7]): 100 | Cupgrass, Woolly plant response rating (woolly cupgrass; [5]): 90 | Cupgrass, Woolly plant response rating (woolly cupgrass; [6]): 98 | Plant response rating, Cupgrass, Woolly (woolly cupgrass; Preemergence): 65 | Cupgrass, Woolly plant response rating (woolly cupgrass; [7]): 100 | Foxtail, Green plant response rating (green foxtail; [5]): 95 | Foxtail, Green plant response rating (green foxtail; [6]): 98 | Plant response rating, Foxtail, Green (green foxtail; Preemergence): 90 | Foxtail, Green plant response rating (green foxtail; [7]): 100 | Plant response rating, Ducksalad (duck salad; [11]): 55 | Plant response rating, Ducksalad (duck salad; [12]): 100 | Surinam Grass plant response rating (Surinam grass; [5]): 98 | Surinam Grass plant response rating (Surinam grass; [6]): 100 | Plant response rating, Surinam Grass (Surinam grass; Preemergence): 70 | Surinam Grass plant response rating (Surinam grass; [7]): 100 | Pigweed plant response rating (pigweed; [5]): 100 | Pigweed plant response rating (pigweed; [6]): 100 | Plant response rating, Pigweed (pigweed; Preemergence): 80 | Pigweed plant response rating (pigweed; [7]): 100
